According to US20240262844A1, “PYRIDINIUM SALTS AND METHODS OF USE” (UNIVERSITY OF WYOMING, priority 2023, published 2024):
Where a name gives a salt, the structure may show the parent alone.

Experiments:
[1] = target: T1, recombinant NPM1 C-terminal domain (residues 240-294) (Homo sapiens, UniProt P06748); assay: In vitro NPM1 C-terminal domain labeling (Western); type: biochemical
T1 construct: made in house; host or cells: NiCo21(DE3) E. coli
Source text: NPM1 Construct design: NPM1 residues 240-294 corresponding to the C-terminal DNA binding domain were fused to a combined 6×His-maltose binding protein (MBP) solubility tag on the N-terminus. An HRV 3C protease cleavage sequence (LEVLFQ/GP) was placed between the tags and NPM1 sequence and upon cleavage the remaining GP sequence corresponds to the NPM1 240-241 residues resulting in a natural peptide sequence without additional residues.
In vitro NPM1 C-terminal domain labeling and characterization: Labeling of recombinant NPM1 with the pyridinium salt 2b was performed with the following conditions: 10 μM NPM1 was treated with DMSO or 100 μM pyridinium salt 2b (2% DMSO) in 50 mM HEPES pH 7.5, 150 mM NaCl, 1.5 mM MgCl2, and 100 μM glutathione (GSH). Samples were irradiated at 450 nm (Kessil PR160L-440) at 100% intensity for 15 minutes at room temperature or 50° C. The reaction mixture was quenched with the addition of 4X LDS buffer (Invitrogen) containing 10 mM DTT (Pierce) and boiled for 10 minutes before resolving proteins on 4-12% Bis-Tris NuPAGE gels (Invitrogen), transferred onto a Trans-Blot Turbo Mini 0.2 μm nitrocellulose membrane (BioRad), blocked with 5% BSA in tris-buffered saline with Tween-20 (TBST), and incubated with HRP-linked anti-biotin (Cell Signaling Technology, #7075).

PARP1 = target: T2, PARP1 (Homo sapiens, UniProt P09874); assay: In-situ labeling and enrichment of PARP1 in HEK293T cells (MS-MS, Western); type: cell-based
T2 construct: endogenous in cells; host or cells: HEK293T
T2 sequence (P09874 whole entry): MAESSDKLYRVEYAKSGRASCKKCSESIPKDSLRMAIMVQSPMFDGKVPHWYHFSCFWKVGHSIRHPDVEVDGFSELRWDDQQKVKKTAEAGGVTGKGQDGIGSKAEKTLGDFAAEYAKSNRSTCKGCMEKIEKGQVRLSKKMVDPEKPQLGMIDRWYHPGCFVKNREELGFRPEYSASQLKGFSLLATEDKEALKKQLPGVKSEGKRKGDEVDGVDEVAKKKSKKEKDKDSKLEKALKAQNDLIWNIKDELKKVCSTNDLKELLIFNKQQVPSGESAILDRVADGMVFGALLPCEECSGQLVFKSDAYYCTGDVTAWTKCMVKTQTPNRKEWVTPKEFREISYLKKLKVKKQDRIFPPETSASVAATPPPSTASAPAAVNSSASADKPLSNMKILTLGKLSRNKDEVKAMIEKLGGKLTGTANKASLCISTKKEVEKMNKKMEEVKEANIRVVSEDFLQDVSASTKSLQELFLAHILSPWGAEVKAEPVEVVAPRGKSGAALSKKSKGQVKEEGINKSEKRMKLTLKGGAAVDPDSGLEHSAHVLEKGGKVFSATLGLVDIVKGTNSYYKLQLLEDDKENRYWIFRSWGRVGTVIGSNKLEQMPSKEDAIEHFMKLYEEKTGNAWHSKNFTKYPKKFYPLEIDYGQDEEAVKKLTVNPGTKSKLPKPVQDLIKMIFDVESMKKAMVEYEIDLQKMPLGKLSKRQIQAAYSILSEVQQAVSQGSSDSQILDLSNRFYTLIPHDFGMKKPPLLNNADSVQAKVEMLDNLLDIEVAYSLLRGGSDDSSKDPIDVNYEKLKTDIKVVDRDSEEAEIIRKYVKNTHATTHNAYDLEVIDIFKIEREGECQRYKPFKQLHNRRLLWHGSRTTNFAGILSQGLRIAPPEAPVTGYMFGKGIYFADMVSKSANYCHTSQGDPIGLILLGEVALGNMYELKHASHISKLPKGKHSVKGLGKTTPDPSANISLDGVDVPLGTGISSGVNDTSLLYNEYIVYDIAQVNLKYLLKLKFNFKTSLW
Method: (§1) Cell culture and in-situ tryptophan probe treatment: Cell lines were cultured at 37° C. with 5% C02. Human embryonic kidney 293 cells expressing a mutant version of the SV40 large T antigen (HEKT293T cells) were grown in Dulbecco's Modified Eagle Medium (DMEM, Gibco) supplemented with 10% fetal bovine serum and 1% penicillin/streptomycin. For in-situ labeling, cells were grown to 90% confluence, washed with Dulbecco's phosphate buffered saline (DPBS), treated with 100x stocks of the tryptophan probes (the pyridinium salts) in OptiMem (GibCo) to generate final concentrations (0 μM, 1 μM, 10 μM, and 100 μM) in 1% dimethylsulfoxide (DMSO). Cells were incubated for 1 hour at 37° C. with 5% C02 followed by photo-activation at the respective wavelengths for 20 minutes at 4° C. Cells were harvested with a cell scraper, washed 3× with DPBS, and pellets were stored at −80° C. until further use. […]
(§2) In-situ tryptophan probe sample processing for peptide-level characterization: Cell pellets were lysed via sonication (QSonica) at 50% amplitude, 2 seconds ON, 3 seconds OFF, 30 seconds in 40 mM HEPES pH 7.5 (4-(2-hydroxyethyl)-1-piperazineethanesulfonic acid), 1.5 mM magnesium chloride (MgCl2), 1% Sodium dodecyl sulfate (SDS), 0.8% NP-40 (also known as nonyl phenoxypolyethoxylethanol), and 1x protease inhibitors (Thermo). Protein concentration was determined by BCA (Pierce). […]

NPM1 = target: T3, NPM1 (Homo sapiens, UniProt P06748); assay: In-situ labeling and enrichment of NPM1 in HEK293T cells (MS-MS, Western); type: cell-based
T3 construct: endogenous in cells; host or cells: HEK293T
T3 sequence (P06748 whole entry): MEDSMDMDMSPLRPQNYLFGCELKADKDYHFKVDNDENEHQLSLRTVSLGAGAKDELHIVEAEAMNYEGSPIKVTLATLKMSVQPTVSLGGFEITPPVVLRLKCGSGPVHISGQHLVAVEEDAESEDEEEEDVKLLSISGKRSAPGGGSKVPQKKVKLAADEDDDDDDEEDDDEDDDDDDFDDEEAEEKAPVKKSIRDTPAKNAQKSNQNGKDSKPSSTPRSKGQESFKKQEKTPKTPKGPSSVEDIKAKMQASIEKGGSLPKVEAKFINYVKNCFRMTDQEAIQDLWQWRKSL
Method: as §1, §2
In-situ tryptophan probe sample processing for protein-level identification: Cell pellets were lysed via sonication (QSonica) at 50% amplitude, 2 seconds ON, 3 seconds OFF, 30 seconds in 50 mM HEPES pH 7.5, 1.5 mM MgCl2, 1% SDS, 0.8% NP-40, and 1x protease inhibitors (Thermo). Protein concentration was determined by BCA (Pierce). […]

[2] = chemoproteomic profiling, HEK293T cells
[3] = cultures irradiated with blue light in the presence of probe, protein-level enrichment

T1 sequence (P06748 240-294): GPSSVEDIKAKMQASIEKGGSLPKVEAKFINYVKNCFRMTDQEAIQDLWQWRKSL

Row | Compound | labeling of the construct (Western analysis) ([1]; 10 μM NPM1, 100 μM probe, 100 μM glutathione, about 440 nm, about 15 minutes) | temperature dependence of labeling ([1]; labeling at about 50° C. versus room temperature) | modified and dose-dependently enriched tryptophan residues (PARP1; [2]) | PARP1 in enriched protein mixture (Western analysis) (PARP1; [3]) | in-situ labeled tryptophan residue (NPM1; [2]) | labeling of Trp288 (NPM1; [2]) | NPM1 in enriched protein mixture (Western analysis) (NPM1; [3])
1 | COc1ccc2cc(-c3cc(C)[n+](N(C)C(=O)OCCCCC[C@H]4SC[C@H]5NC(=O)N[C@H]54)c(C)c3)ccc2c1 (stereo in doubt) [Pyridinium salt 2b, 4-(6-methoxynaphthalen-2-yl)-2,6-dimethyl-1-(methyl(((5-((3aR,4R,6aS)-2-oxohexahydro-1H-thieno[3,4-d]imidazol-4-yl)pentyl)oxy)carbonyl)amino)pyridin-1-ium tetrafluoroborate] | photo-dependent labeling | higher level of labeling |  |  |  |  | 
2 | COc1ccc2cc(-c3cc(C)[n+](N(C)C(=O)OCCCCCCN=[N+]=[N-])c(C)c3)ccc2c1 [Pyridinium salt 2d, 1-((((6-azidohexyl)oxy)carbonyl)(methyl)amino)-4-(6-methoxynaphthalen-2-yl)-2,6-dimethylpyridin-1-ium tetrafluoroborate] |  |  | Trp79 and Trp318 | found to contain both proteins | Trp290 | not labeled | found to contain both proteins
